Holding throughout (format): binding
In test [1] the target is T1, HeLa cell extract proteins (Homo sapiens, UniProt O43776).
T1 construct: endogenous in cells; host or cells: HeLa cell extract
T1 sequence (O43776 1-548): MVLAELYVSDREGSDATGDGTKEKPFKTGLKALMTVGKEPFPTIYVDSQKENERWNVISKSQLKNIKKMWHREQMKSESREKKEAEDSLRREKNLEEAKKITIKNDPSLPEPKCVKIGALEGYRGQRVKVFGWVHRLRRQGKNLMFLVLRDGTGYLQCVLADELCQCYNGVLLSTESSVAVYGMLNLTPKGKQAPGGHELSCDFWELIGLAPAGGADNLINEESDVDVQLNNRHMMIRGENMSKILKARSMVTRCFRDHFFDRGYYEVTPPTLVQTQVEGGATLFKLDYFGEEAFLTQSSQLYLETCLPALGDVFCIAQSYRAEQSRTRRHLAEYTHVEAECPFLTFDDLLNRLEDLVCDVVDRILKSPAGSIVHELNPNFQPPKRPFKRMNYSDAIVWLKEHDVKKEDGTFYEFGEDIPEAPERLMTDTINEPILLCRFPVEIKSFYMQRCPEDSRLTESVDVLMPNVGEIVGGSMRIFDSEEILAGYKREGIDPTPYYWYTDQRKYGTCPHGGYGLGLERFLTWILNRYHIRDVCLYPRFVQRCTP
As to conditions: protein NARS; HeLa.

The target in test [2] is T2, HeLa cell extract proteins (Homo sapiens, UniProt P10155).
T2 construct: endogenous in cells; host or cells: HeLa cell extract
T2 sequence (P10155 whole entry): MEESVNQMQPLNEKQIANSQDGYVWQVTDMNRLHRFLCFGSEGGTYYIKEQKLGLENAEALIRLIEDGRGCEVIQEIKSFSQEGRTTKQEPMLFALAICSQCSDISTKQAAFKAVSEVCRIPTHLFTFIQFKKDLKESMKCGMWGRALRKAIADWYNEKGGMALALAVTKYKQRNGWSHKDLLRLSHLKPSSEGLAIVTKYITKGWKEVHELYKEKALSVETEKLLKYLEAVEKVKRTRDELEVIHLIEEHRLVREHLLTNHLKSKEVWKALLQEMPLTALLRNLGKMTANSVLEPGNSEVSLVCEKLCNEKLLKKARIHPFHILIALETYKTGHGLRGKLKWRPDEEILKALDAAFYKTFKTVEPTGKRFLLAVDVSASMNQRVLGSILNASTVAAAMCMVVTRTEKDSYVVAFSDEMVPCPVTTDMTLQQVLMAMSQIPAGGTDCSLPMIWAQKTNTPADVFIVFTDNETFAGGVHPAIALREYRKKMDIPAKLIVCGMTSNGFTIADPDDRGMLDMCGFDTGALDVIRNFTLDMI
The note with it: protein TROVE2; HeLa.

Test [3] addresses T3, HeLa cell extract proteins (Homo sapiens, UniProt P21266).
T3 construct: endogenous in cells; host or cells: HeLa cell extract
T3 sequence (P21266 1-225): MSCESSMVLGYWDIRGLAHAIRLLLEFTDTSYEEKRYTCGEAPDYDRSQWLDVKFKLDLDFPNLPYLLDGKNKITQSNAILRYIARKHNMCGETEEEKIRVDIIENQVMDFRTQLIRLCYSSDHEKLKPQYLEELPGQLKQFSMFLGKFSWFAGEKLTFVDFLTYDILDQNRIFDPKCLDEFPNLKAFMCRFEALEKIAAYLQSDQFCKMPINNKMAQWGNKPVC
The note with it: protein GSTM3; HeLa.

Test [4] has as its target T4, HeLa cell extract proteins (Homo sapiens, UniProt P41250).
T4 construct: endogenous in cells; host or cells: HeLa cell extract
T4 sequence (P41250 37-739): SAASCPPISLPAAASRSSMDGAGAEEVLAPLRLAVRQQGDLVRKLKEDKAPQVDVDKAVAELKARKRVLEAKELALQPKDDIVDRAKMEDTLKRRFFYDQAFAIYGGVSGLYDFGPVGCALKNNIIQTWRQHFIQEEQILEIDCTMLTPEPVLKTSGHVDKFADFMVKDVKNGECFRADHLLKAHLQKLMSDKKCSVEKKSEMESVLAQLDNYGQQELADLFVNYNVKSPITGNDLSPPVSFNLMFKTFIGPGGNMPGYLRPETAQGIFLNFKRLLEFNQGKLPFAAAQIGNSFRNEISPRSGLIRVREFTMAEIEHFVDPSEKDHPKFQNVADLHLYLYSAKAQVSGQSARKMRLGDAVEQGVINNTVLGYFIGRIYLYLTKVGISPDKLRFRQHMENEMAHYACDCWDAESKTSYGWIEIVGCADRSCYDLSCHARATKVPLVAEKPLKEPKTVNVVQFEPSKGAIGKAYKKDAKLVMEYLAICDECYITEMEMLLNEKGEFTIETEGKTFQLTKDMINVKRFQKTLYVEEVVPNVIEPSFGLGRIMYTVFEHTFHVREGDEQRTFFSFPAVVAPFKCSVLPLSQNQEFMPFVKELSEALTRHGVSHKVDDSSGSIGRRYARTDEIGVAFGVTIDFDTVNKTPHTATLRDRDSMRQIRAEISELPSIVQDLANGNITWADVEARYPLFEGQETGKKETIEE
The note with it: protein GARS; HeLa.

Test [5] concerns the target T5, HeLa cell extract proteins (Homo sapiens, UniProt P48556).
T5 construct: endogenous in cells; host or cells: HeLa cell extract
T5 sequence (P48556 1-350): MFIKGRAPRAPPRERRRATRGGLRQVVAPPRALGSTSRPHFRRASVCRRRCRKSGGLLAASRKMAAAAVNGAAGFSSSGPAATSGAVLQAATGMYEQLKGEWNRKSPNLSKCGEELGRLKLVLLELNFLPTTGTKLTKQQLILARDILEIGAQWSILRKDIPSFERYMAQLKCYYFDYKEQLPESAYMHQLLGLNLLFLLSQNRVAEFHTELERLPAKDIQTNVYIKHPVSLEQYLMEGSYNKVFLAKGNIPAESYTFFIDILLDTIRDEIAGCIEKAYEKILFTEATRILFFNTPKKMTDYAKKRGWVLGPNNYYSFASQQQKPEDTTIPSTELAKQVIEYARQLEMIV
As to conditions: captured protein PSMD8; HeLa.

For test [6], the target named is T6, HeLa cell extract proteins (Homo sapiens, UniProt P55884).
T6 construct: endogenous in cells; host or cells: HeLa cell extract
T6 sequence (P55884 whole entry): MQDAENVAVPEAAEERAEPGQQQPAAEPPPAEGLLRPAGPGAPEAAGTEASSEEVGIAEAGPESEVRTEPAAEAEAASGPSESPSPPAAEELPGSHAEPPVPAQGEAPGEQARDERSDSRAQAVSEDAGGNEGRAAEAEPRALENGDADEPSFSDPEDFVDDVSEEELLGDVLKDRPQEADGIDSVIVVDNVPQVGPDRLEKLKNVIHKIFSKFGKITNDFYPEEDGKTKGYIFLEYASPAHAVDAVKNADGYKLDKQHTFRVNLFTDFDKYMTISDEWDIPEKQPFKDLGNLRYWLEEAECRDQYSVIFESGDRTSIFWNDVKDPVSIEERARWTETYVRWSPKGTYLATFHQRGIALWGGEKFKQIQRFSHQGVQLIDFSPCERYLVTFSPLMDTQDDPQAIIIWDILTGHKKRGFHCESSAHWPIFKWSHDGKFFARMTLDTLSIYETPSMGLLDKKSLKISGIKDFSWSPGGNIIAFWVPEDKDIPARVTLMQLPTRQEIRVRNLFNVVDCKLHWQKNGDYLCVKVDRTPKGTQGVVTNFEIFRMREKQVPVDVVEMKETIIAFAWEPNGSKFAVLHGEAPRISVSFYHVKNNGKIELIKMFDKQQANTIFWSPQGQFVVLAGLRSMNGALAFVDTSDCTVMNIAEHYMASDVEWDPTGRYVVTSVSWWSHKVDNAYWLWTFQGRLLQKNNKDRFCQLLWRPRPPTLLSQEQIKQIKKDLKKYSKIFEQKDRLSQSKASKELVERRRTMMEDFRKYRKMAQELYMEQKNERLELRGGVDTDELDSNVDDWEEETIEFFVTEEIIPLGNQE
The note with it: protein EIF3B; HeLa.

In test [7] the target is T7, HeLa cell extract proteins (Homo sapiens, UniProt P82933).
T7 construct: endogenous in cells; host or cells: HeLa cell extract
As to conditions: protein MRPS9; HeLa.

In test [8] the target is T8, HeLa cell extract proteins (Homo sapiens, UniProt Q8TEQ6).
T8 construct: endogenous in cells; host or cells: HeLa cell extract
T8 sequence (Q8TEQ6 whole entry): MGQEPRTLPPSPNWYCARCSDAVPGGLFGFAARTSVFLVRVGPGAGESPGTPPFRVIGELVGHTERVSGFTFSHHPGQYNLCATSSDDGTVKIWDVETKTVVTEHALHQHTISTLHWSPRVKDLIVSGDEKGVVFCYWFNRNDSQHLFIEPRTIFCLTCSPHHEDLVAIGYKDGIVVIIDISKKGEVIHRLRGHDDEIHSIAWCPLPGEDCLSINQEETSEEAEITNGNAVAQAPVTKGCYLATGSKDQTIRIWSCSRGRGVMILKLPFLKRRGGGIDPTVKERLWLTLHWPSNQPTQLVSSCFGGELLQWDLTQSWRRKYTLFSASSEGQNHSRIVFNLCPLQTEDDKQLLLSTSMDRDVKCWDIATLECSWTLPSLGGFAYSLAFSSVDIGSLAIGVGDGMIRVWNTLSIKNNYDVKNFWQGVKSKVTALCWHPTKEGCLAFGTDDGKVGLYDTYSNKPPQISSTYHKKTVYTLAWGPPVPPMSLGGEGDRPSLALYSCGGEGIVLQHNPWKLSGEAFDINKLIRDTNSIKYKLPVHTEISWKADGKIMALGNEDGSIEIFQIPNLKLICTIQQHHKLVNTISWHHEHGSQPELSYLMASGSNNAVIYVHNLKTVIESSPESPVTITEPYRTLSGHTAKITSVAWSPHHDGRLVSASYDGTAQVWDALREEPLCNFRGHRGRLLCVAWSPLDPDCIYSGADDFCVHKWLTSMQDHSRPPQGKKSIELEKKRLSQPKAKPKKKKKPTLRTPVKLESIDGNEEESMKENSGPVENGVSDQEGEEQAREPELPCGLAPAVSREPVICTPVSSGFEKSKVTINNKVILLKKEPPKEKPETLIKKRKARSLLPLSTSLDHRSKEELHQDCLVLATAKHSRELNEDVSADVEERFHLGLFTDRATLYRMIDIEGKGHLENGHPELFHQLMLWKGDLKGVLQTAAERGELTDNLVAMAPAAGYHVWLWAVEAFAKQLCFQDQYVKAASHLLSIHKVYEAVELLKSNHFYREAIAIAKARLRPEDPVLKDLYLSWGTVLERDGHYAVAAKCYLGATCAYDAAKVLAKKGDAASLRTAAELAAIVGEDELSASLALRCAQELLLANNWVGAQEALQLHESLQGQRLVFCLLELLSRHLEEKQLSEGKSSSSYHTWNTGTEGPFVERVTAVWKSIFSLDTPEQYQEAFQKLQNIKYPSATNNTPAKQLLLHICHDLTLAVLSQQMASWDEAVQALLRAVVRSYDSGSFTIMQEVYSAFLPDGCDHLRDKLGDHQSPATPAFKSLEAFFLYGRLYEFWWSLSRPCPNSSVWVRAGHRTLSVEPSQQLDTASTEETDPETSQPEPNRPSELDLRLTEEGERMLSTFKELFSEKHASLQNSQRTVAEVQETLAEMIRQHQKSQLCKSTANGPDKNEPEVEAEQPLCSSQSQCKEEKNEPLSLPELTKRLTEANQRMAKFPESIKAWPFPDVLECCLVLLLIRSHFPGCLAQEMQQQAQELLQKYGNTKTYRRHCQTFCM
As to conditions: protein GEMIN5; HeLa.

Test [9] addresses T9, HeLa cell extract proteins (Homo sapiens, UniProt P04279).
T9 construct: endogenous in cells; host or cells: HeLa cell extract
T9 sequence (P04279 24-462): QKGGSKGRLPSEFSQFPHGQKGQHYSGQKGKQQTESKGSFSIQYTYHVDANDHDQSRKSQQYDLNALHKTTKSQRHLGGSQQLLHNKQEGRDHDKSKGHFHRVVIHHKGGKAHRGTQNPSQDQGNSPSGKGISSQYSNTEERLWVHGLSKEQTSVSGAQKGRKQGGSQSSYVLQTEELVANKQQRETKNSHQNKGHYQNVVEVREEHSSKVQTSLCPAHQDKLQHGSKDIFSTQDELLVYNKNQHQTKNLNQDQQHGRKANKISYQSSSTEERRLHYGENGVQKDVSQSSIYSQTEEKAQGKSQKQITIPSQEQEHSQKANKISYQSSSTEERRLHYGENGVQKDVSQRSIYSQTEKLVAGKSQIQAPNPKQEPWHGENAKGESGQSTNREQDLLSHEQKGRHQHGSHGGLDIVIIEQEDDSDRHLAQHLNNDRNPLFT

Test [10] has as its target T10, HeLa cell extract proteins (Homo sapiens, UniProt Q7Z6Z7).
T10 construct: endogenous in cells; host or cells: HeLa cell extract

The record followed here is paper PMC6199744, “Development of Chemical Proteomics for the Folateome and Analysis of the Kinetoplastid Folateome” (ACS Infectious Diseases, 2018).

SMILES strings stand for the structures. Like-named read-outs stand apart in the source and are kept apart here.

Regarding `Nc1nc2cccc(-c3ccccc3)c2n1Cc1ccc(Cl)c(Cl)c1` [compound 3], the “fold changes relative to vehicle control” value in [1] is 1.28; in test [2], 1.27; in test [3] it was 0.93; in [4], 0.93; in [5] it was 0.78; in test [6] it was 1.2. The entries for the “fold changes relative to vehicle control” value in test [7] and in test [8] were 0.92 and 1.61, respectively.
As to `NCCOCCOCC(=O)Nc1nc2ncc(CNc3ccc(C(=O)NC(CCC(=O)O)C(=O)O)cc3)nc2c(=O)[nH]1` (centres unmarked) [compound 6], the “fold changes relative to vehicle control” value in [9] (protein SEMG1, HeLa) stood at 0.16; in test [10] (HeLa, protein HUWE1) it was 1.23.
With `Nc1nc2[nH]cc(CCc3ccc(C(=O)N[C@@H](CCC(=O)O)C(=O)O)cc3)c2c(=O)[nH]1` [PTX, pemetrexed], the “fold changes relative to vehicle control” value is 0.14 in test [9] and 1.02 in [10].
For `Nc1nc2c(c(=O)[nH]1)N(C=O)C(CNc1ccc(C(=O)N[C@@H](CCC(=O)O)C(=O)O)cc1)CN2` (some centres unmarked) [LEU, leucovorin], the “fold changes relative to vehicle control” value in test [9] (protein SEMG1, HeLa) is 0.13; in [10] (HeLa, protein HUWE1) it was 0.98.
As for `CCCCCCOc1ccc(Cc2cnc(N)nc2N)cc1` [compound 1], the “fold changes relative to vehicle control” value in test [1] is 1.11; in test [2], 1.05; in test [3], 1.22; in test [4], 1.14; in [5], 0.89; in test [6] it was 0.99. For the same compound, the figures for the “fold changes relative to vehicle control” value in [7] and in test [8] were 1.24 and 0.99, respectively.
Take `NCCCNc1ccc(C(=O)NC(CCC(=O)O)C(=O)O)cc1` (centres unmarked) [compound 7]: the “fold changes relative to vehicle control” value in test [9] (protein SEMG1, HeLa) turned out to be 0.09; in test [10] (HeLa, protein HUWE1), 0.96.
Consider `CCCCCCOc1cccc(Cc2cnc(N)nc2N)c1` [compound 2], for which the “fold changes relative to vehicle control” value in [1] was 2.06; in test [2], 1.49; in test [3], 1.72; in [4] it was 1.74; in test [5] it was 1.08; in test [6], 1.68. The entries for the “fold changes relative to vehicle control” value in test [7] and in test [8] were 1.3 and 1.12, respectively.
